Results reported in US12077503B2, “Substituted cyclic amides and their use as herbicides” (FMC CORPORATION, priority 2015, dated 2024).

Columns and labels:
Type in all cases: in vivo
[1] = test system: barnyardgrass (Echinochloa crus-galli); assay: Test G Pre-Emergence Protocol; details: Echinochloa crus-galli, pre-emergence, 312 h, evaluated after 13 days
Outline: (§1)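 Under a 24/16° C day/night regime with 14 h light and 65% humidity, sown pots were sprayed after one day with compound (15.625, 62.5 or 250 g/ha; 50:50 acetone/water, 0.5% Tween 20). Damage was assessed visually 13 days later, 0 to 100.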

corn (Zea mays) [2] = assay: Test G Pre-Emergence Protocol; details: Zea mays, pre-emergence, 312 h, evaluated after 13 days
Outline: as §1

[3] = test system: giant foxtail (Setaria faberi); assay: Test G Pre-Emergence Protocol; details: Setaria faberi, pre-emergence, 312 h, evaluated after 13 days
Outline: as §1

[4] = test system: ivy-leaved morning glory (Ipomoea hederacea); assay: Test G Pre-Emergence Protocol; details: Ipomoea, pre-emergence, 312 h, evaluated after 13 days
Outline: as §1

[5] = test system: redroot pigweed (Amaranthus retroflexus); assay: Test G Pre-Emergence Protocol; details: Amaranthus retroflexus, pre-emergence, 312 h, evaluated after 13 days
Outline: as §1

[6] = test system: velvetleaf (Abutilon theophrasti); assay: Test G Pre-Emergence Protocol; details: Abutilon theophrasti, pre-emergence, 312 h, evaluated after 13 days
Outline: as §1

[7] = test system: barnyardgrass (Echinochloa crus-galli); assay: Test G Post-Emergence Protocol; details: Echinochloa crus-galli, post-emergence, 312 h
Outline: (§2)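 Foliar application was made 8 days after sowing, using an aqueous spray of the active in acetone/water (50:50) with 0.5% Tween 20, at doses of 15.625, 62.5 or 250 g/ha. Injury was assessed 13 days later, where 100 meant the plant was fully damaged.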

corn (Zea mays) [8] = assay: Test G Post-Emergence Protocol; details: Zea mays, post-emergence, 312 h
Outline: as §2

[9] = test system: giant foxtail (Setaria faberi); assay: Test G Post-Emergence Protocol; details: Setaria faberi, post-emergence, 312 h
Outline: as §2

[10] = test system: ivy-leaved morning glory (Ipomoea hederacea); assay: Test G Post-Emergence Protocol; details: Ipomoea, post-emergence, 312 h
Outline: as §2

[11] = test system: redroot pigweed (Amaranthus retroflexus); assay: Test G Post-Emergence Protocol; details: Amaranthus retroflexus, post-emergence, 312 h
Outline: as §2

[12] = test system: velvetleaf (Abutilon theophrasti); assay: Test G Post-Emergence Protocol; details: Abutilon theophrasti, post-emergence, 312 h
Outline: as §2

Cc1c(NC(=O)[C@H]2C(=O)N(C)C[C@@H]2c2ccc(C(F)(F)F)cc2)cccc1C(F)(F)F (racemic) [Compound 1424]
10%: pest or weed control at 62.5 g/ha ([1]; 62.5 g ai/ha, 100=total damage to plant, 0=no damage to plant, read-out: plant damage rating, Barnyardgrass) | pest or weed control at 250 g/ha ([7]; 250 g ai/ha, evaluated after 13 days, read-out: damage to plant, Barnyardgrass (100=total damage to plant; 0=no damage to plant)) | plant injury at 250 g/ha (corn (Zea mays) [8]; 250 g ai/ha, evaluated after 13 days, read-out: damage to plant, Corn (100=total damage to plant; 0=no damage to plant)) | pest or weed control at 15.625 g/ha ([11]; 15.625 g ai/ha, evaluated after 13 days (100=total damage to plant; 0=no damage to plant), read-out: Pigweed, Redroot damage rating)
40%: pest or weed control at 62.5 g/ha ([3]; 62.5 g ai/ha, 100=total damage to plant, 0=no damage to plant, read-out: plant damage rating, Foxtail, Giant)
0%: pest or weed control at 15.625 g/ha ([1]; 15.625 g ai/ha, read-out: Barnyard grass damage rating (100=total damage to plant; 0=no damage to plant)) | plant injury at 15.625 g/ha (corn (Zea mays) [2]; 15.625 g ai/ha, read-out: Corn damage rating (100=total damage to plant; 0=no damage to plant)) | plant injury at 62.5 g/ha (corn (Zea mays) [2]; 62.5 g ai/ha, 100=total damage to plant, 0=no damage to plant, read-out: plant damage rating, Corn) | plant injury at 250 g/ha (corn (Zea mays) [2]; 250 g ai/ha, read-out: Corn damage rating (100=total damage to plant; 0=no damage to plant)) | pest or weed control at 15.625 g/ha ([3]; 15.625 g ai/ha, read-out: Foxtail, Giant damage rating (100=total damage to plant; 0=no damage to plant)) | pest or weed control at 15.625 g/ha ([4]; 15.625 g ai/ha, read-out: Morning-glory, Ivy-leaved damage rating (100=total damage to plant; 0=no damage to plant)) | pest or weed control at 62.5 g/ha ([4]; 62.5 g ai/ha, 100=total damage to plant, 0=no damage to plant, read-out: plant damage rating, Morningglory, Ivy-leaved) | pest or weed control at 250 g/ha ([4]; 250 g ai/ha, read-out: Morningglory, Ivy-leaved damage rating (100=total damage to plant; 0=no damage to plant)) | pest or weed control at 15.625 g/ha ([5]; 15.625 g ai/ha, read-out: Pigweed, Redroot damage rating (100=total damage to plant; 0=no damage to plant)) | pest or weed control at 62.5 g/ha ([5]; 62.5 g ai/ha, 100=total damage to plant, 0=no damage to plant, read-out: plant damage rating, Pigweed, Redroot) | pest or weed control at 250 g/ha ([5]; 250 g ai/ha, read-out: Pigweed, Redroot damage rating (100=total damage to plant; 0=no damage to plant)) | pest or weed control at 15.625 g/ha ([6]; 15.625 g ai/ha, read-out: Velvetleaf damage rating (100=total damage to plant; 0=no damage to plant)) | pest or weed control at 62.5 g/ha ([6]; 62.5 g ai/ha, 100=total damage to plant, 0=no damage to plant, read-out: plant damage rating, Velvetleaf) | pest or weed control at 250 g/ha ([6]; 250 g ai/ha, read-out: Velvetleaf damage rating (100=total damage to plant; 0=no damage to plant)) | pest or weed control at 15.625 g/ha ([7]; 15.625 g ai/ha, evaluated after 13 days (100=total damage to plant; 0=no damage to plant), read-out: Barnyardgrass damage rating) | pest or weed control at 62.5 g/ha ([7]; 62.5 g ai/ha, evaluated after 13 days, read-out: Barnyardgrass damage rating (100=total damage to plant; 0=no damage to plant)) | plant injury at 15.625 g/ha (corn (Zea mays) [8]; 15.625 g ai/ha, evaluated after 13 days (100=total damage to plant; 0=no damage to plant), read-out: Corn damage rating) | plant injury at 62.5 g/ha (corn (Zea mays) [8]; 62.5 g ai/ha, evaluated after 13 days, read-out: Corn damage rating (100=total damage to plant; 0=no damage to plant)) | pest or weed control at 15.625 g/ha ([9]; 15.625 g ai/ha, evaluated after 13 days (100=total damage to plant; 0=no damage to plant), read-out: Foxtail, Giant damage rating) | pest or weed control at 62.5 g/ha ([9]; 62.5 g ai/ha, evaluated after 13 days, read-out: Foxtail, Giant damage rating (100=total damage to plant; 0=no damage to plant)) | pest or weed control at 15.625 g/ha ([10]; 15.625 g ai/ha, evaluated after 13 days (100=total damage to plant; 0=no damage to plant), read-out: Morningglory, Ivy-leaved damage rating) | pest or weed control at 62.5 g/ha ([10]; 62.5 g ai/ha, evaluated after 13 days, read-out: Morningglory, Ivy-leaved damage rating (100=total damage to plant; 0=no damage to plant)) | pest or weed control at 250 g/ha ([10]; 250 g ai/ha, evaluated after 13 days, read-out: damage to plant, Morningglory, Ivy-leaved (100=total damage to plant; 0=no damage to plant)) | pest or weed control at 15.625 g/ha ([12]; 15.625 g ai/ha, evaluated after 13 days (100=total damage to plant; 0=no damage to plant), read-out: Velvetleaf damage rating) | pest or weed control at 62.5 g/ha ([12]; 62.5 g ai/ha, evaluated after 13 days, read-out: Velvetleaf damage rating (100=total damage to plant; 0=no damage to plant)) | pest or weed control at 250 g/ha ([12]; 250 g ai/ha, evaluated after 13 days, read-out: damage to plant, Velvetleaf (100=total damage to plant; 0=no damage to plant))
70%: pest or weed control at 250 g/ha ([3]; 250 g ai/ha, read-out: Foxtail, Giant damage rating (100=total damage to plant; 0=no damage to plant))
20%: pest or weed control at 250 g/ha ([9]; 250 g ai/ha, evaluated after 13 days, read-out: damage to plant, Foxtail, Giant (100=total damage to plant; 0=no damage to plant)) | pest or weed control at 62.5 g/ha ([11]; 62.5 g ai/ha, evaluated after 13 days, read-out: Pigweed, Redroot damage rating (100=total damage to plant; 0=no damage to plant)) | pest or weed control at 250 g/ha ([11]; 250 g ai/ha, evaluated after 13 days, read-out: damage to plant, Pigweed, Redroot (100=total damage to plant; 0=no damage to plant))
50%: pest or weed control at 250 g/ha ([1]; 250 g ai/ha, read-out: Barnyardgrass damage rating (100=total damage to plant; 0=no damage to plant))
